The target of experiment [1] is T1, wt human TYK2, catalytic site (Homo sapiens, UniProt P29597).
T1 construct: 2 nM wt human TYK2, catalytic site (SignalChem/CAN); purchased SignalChem/CAN
T1 sequence (P29597 897-1176 limits assumed): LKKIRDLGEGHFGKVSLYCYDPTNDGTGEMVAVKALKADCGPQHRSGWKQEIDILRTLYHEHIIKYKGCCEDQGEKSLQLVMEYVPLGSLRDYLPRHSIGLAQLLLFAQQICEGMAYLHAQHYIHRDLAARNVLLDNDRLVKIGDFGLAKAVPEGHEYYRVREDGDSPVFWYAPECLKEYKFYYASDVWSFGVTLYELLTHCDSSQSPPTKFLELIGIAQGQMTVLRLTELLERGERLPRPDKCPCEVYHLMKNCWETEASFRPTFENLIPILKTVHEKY
Kind of experiment: HTRF KinEASE assay, TYK2. The class given is biochemical. The following applies: 1 μM ATP; read-out: IC50, inhibitory activity toward TYK2. On the procedure:
Basic protocol for HTRF KinEASE assay (Cisbio/FRA) inhibitor studies involved two steps: Enzymatic step: Addition of 4 μl of test compound in corresponding DMSO dilutions, 4 μl of kinase/substrate mixture, 2 μl of ATP into 384 well small volume plates. Incubation for at least 30 minutes at room temperature.
Detection step: Addition of 5 μl antibody and 5 μl streptavidin-XL665, read plate after 60 minutes. Data analysis of emission ratios according to KinEASE assay protocol.
Kinase and assay components were adjusted to final concentrations according to the kit protocol. For TYK2: 2 nM wt human TYK2, catalytic site (SignalChem/CAN), 1 μM HTRF KinEASE-TK Substrate-biotin, 1 μM ATP in 1× Kinase Buffer
Background: Time-resolved FRET reads energy transfer from a long-lived donor to a nearby acceptor.

In experiment [2] the target is T2, wt human NUAK1, full length (Homo sapiens, UniProt O60285).
T2 construct: 8 nM wt human NUAK1, full length (ThermoFisher/USA); purchased ThermoFisher/USA
T2 sequence (O60285 1-661): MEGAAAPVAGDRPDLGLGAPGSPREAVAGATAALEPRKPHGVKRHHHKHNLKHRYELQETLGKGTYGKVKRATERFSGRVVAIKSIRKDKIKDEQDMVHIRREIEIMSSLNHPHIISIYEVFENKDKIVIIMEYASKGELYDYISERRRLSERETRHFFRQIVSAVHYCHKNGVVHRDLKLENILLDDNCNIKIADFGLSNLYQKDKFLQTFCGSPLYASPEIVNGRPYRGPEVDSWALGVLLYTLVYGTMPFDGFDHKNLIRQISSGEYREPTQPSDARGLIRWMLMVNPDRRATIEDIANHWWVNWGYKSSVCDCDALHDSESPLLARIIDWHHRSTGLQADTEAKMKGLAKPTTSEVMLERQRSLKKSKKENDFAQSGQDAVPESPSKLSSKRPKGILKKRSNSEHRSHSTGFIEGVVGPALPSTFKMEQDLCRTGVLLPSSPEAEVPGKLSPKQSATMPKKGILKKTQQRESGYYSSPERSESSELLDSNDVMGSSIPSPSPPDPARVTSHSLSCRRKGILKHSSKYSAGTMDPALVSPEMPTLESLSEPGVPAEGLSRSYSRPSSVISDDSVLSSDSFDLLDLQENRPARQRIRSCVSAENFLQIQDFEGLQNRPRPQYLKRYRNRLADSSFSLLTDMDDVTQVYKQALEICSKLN
The experiment in a line: TR-FRET LanthaScreen Eu Kinase Binding Assay, NUAK1. The note with it: 5 nM Kinase Tracer 236; read-out: IC50, inhibitory activity toward NUAK1. On the procedure: The basic protocol for TR-FRET LanthaScreen Eu Kinase Binding Assay inhibitor studies were performed as follows. LanthaScreen Kinase Binding Assays (ThermoFisher/USA) to evaluate inhibitors were performed by addition of 5 μl of test compound in corresponding DMSO dilutions/5 μl of kinase/antibody mixture, 5 μl of tracer into 384 well small volume plates. After incubation for 1 hour at room temperature, plates were read. Data analysis of emission ratios was according to LanthaScreen Eu Kinase Binding Assay protocol.
Kinase and assay components were adjusted to final concentrations according to the kit protocol. For LRRK2: 5 nM wt human LRRK2, catalytic site, or G2019S human LRRK2, catalytic site (ThermoFisher/USA), 2 nM Eu-Anti-GST Antibody, 10 nM Kinase Tracer 236 in 1× Kinase Buffer A. For NUAK1: 8 nM wt human NUAK1, full length (ThermoFisher/USA), 2 nM Eu-Anti-His Antibody, 5 nM Kinase Tracer 236 in 1× Kinase Buffer A.

One may read the IC50 as the concentration that inhibits the measured activity by half. Turning to `Fc1cccc(Cl)c1C1=Nc2ccc(Cl)cc2-c2[nH]ncc2N1` [Compound 37, 9-chloro-5-(2-chloro-6-fluorophenyl)-1,4-dihydrobenzo[d]pyrazolo[3,4-f][1,3]diazepine], the 50% inhibitory concentration (IC50) in experiment [1] and in experiment [2] was 100 to 1000 nM in each case.
On to `COc1ccc2c(c1)-c1[nH]ncc1N=C(c1c(F)cccc1F)N2` [Compound 38, 5-(2,6-difluorophenyl)-9-methoxy-1,6-dihydrobenzo[d]pyrazolo[3,4-f][1,3]diazepine], for which the IC50 in experiment [1] and in experiment [2] was 100 to 1000 nM in each case.
For `COc1ccc2c(c1)-c1[nH]ncc1N=C(c1c(F)cccc1Cl)N2` [Compound 39, 5-(2-chloro-6-fluorophenyl)-9-methoxy-1,6-dihydrobenzo[d]pyrazolo[3,4-f][1,3]diazepine], the IC50 in experiment [1] and in experiment [2] was 100 to 1000 nM throughout.
As to `Fc1cccc(F)c1C1=Nc2cn[nH]c2-c2cc(OC(F)F)ccc2N1` [Compound 42, 9-(difluoromethoxy)-5-(2,6-difluorophenyl)-1,6-dihydrobenzo[d]pyrazolo[3,4-f][1,3]diazepine], the concentration for half-maximal inhibition (IC50) lay within 100 to 1000 nM in experiment [1] and 10 to 100 nM in experiment [2].
On to `Fc1cccc(Cl)c1C1=Nc2cn[nH]c2-c2cc(OC(F)F)ccc2N1` [Compound 43, 5-(2-chloro-6-fluorophenyl)-9-(difluoromethoxy)-1,6-dihydrobenzo[d]pyrazolo[3,4-f][1,3]diazepine], for which the half-maximal inhibitory concentration (IC50) in experiment [1] is 100 to 1000 nM; in experiment [2], 10 to 100 nM.
Regarding `CCc1ccc2c(c1)-c1[nH]ncc1N=C(c1c(F)cccc1Cl)N2` [Compound 45, 5-(2-chloro-6-fluorophenyl)-9-ethyl-1,6-dihydrobenzo[d]pyrazolo[3,4-f][1,3]diazepine], the IC50 in experiment [1] and in experiment [2] was 100 to 1000 nM throughout.
As to `COc1ccc2c(c1)N=C(c1c(F)cccc1F)Nc1cn[nH]c1-2` [Compound 49, 5-(2,6-difluorophenyl)-8-methoxy-1,4-dihydrobenzo[d]pyrazolo[3,4-f][1,3]diazepine], the half-inhibitory concentration (IC50) in experiment [1] was in the range of 10 to 100 nM; in experiment [2], 100 to 1000 nM.
The like results for `OCc1ccc2c(c1)-c1[nH]ncc1N=C(c1c(F)cccc1F)N2` [Compound 50, (5-(2,6-difluorophenyl)-1,6-dihydrobenzo[d]pyrazolo[3,4-f][1,3]diazepin-9-yl)methanol] were, in that order, 100 to 1000 nM and 10 to 100 nM.
As for `Fc1cccc(F)c1C1=Nc2ccncc2-c2[nH]ncc2N1` [Compound 53, 5-(2,6-difluorophenyl)-1,4-dihydropyrazolo[4,3-d]pyrido[3,4-f][1,3]diazepine], the IC50 in experiment [1] and in experiment [2] was 10 to 100 nM in each case.
Consider `Cc1cnc2c(c1)-c1[nH]ncc1N=C(c1c(F)cccc1F)N2` [Compound 61, 5-(2,6-difluorophenyl)-9-methyl-1,6-dihydropyrazolo[4,3-d]pyrido[3,2-f][1,3]diazepine], for which the concentration for half-maximal inhibition (IC50) fell in the range of 100 to 1000 nM in experiment [1] and 10 to 100 nM in experiment [2].
The like results for `Fc1cccc(F)c1C1=Nc2cn[nH]c2-c2cc(Cl)cnc2N1` [Compound 64, 9-chloro-5-(2,6-difluorophenyl)-1,6-dihydropyrazolo[4,3-d]pyrido[3,2-f][1,3]diazepine] were, in that order, 100 to 1000 nM and 10 to 100 nM.
Regarding `Fc1cccc(F)c1C1=Nc2cn[nH]c2-c2cn(-c3ccccc3)nc2N1` [Compound 68, 5-(2,6-difluorophenyl)-8-phenyl-6,8-dihydro-1H-dipyrazolo[3,4-d:3 ′,4′-f][1,3]diazepine], the half-maximal inhibitory concentration (IC50) in experiment [1] and in experiment [2] was 10 to 100 nM in each case.
For the molecule `Fc1cccc(F)c1C1=Nc2c(Br)n[nH]c2-c2ccccc2N1` [Compound 69, 3-bromo-5-(2,6-difluorophenyl)-1,6-dihydrobenzo[d]pyrazolo[3,4-f][1,3]diazepine], the IC50 in experiment [1] and in experiment [2] was 10 to 100 nM throughout.
Take `Fc1cccc(F)c1C1=Nc2cnccc2-c2[nH]ncc2N1` [Compound 71, 5-(2,6-difluorophenyl)-1,4-dihydropyrazolo[4,3-d]pyrido[4,3-f][1,3]diazepine]: the half-inhibitory concentration (IC50) is 10 to 100 nM in experiment [1] and below 10 nM in experiment [2].
The like results for `Fc1cccc(F)c1C1=Nc2cn[nH]c2-c2cn[nH]c2N1` [Compound 72, 5-(2,6-difluorophenyl)-6,7-dihydro-1H-dipyrazolo[3,4-d:3′,4′-f][1,3]diazepine] were, in that order, 10 to 100 nM and 10 to 100 nM.
Taken in the same sequence, the figures for `O=C(O)c1ccc2c(c1)N=C(c1c(F)cccc1F)Nc1cn[nH]c1-2` [Compound 73, 5-(2,6-difluorophenyl)-1,4-dihydrobenzo[d]pyrazolo[3,4-f][1,3]diazepine-8-carboxylic acid] were below 10 nM and 10 to 100 nM.
Taken in the same sequence, the figures for `Cc1n[nH]c2c1NC(c1c(F)cccc1F)=Nc1ccccc1-2` [Compound 76, 5-(2,6-difluorophenyl)-3-methyl-1,4-dihydrobenzo[d]pyrazolo[3,4-f][1,3]diazepine] were 10 to 100 nM and 10 to 100 nM.
As for `O=C(c1ccc2c(c1)N=C(c1c(F)cccc1Cl)Nc1cn[nH]c1-2)N1CCOCC1` [Compound 78, (5-(2-chloro-6-fluorophenyl)-1,4-dihydrobenzo[d]pyrazolo[3,4-f][1,3]diazepin-8-yl)(morpholino)methanone], the half-maximal inhibitory concentration (IC50) in experiment [1] and in experiment [2] was 100 to 1000 nM throughout.
Turning to `Fc1cccc(Cl)c1C1=Nc2c(Br)n[nH]c2-c2cccnc2N1` [Compound 88], the 50% inhibitory concentration (IC50) in experiment [1] and in experiment [2] was 10 to 100 nM in each case.
In the case of `FC(F)Oc1ccc2c(c1)-c1[nH]ncc1N=C(c1c(Cl)cccc1Cl)N2` [Compound 90, 5-(2,6-dichlorophenyl)-9-(difluoromethoxy)-1,6-dihydrobenzo[d]pyrazolo[3,4-f][1,3]diazepine], the IC50 in experiment [1] and in experiment [2] was 100 to 1000 nM throughout.
On to `NC(=O)c1ccc2c(c1)-c1[nH]ncc1NC(c1c(F)cccc1F)=N2` [Compound 93, 5-(2,6-difluorophenyl)-1,4-dihydrobenzo[d]pyrazolo[3,4-f][1,3]diazepine-9-carboxamide], for which the IC50 lay in the range of 100 to 1000 nM in experiment [1] and 10 to 100 nM in experiment [2].
Turning to `NC(=O)c1ccc2c(c1)-c1[nH]ncc1N=C(c1c(F)cccc1Cl)N2` [Compound 94, 5-(2-chloro-6-fluorophenyl)-1,6-dihydrobenzo[d]pyrazolo[3,4-f][1,3]diazepine-9-carboxamide], the results for the half-maximal inhibitory concentration (IC50) in experiment [1] and in experiment [2] were 100 to 1000 nM and 10 to 100 nM, respectively.
In the case of `O=C(NC1CCOCC1)c1ccc2c(c1)N=C(c1c(F)cccc1F)Nc1cn[nH]c1-2` [Compound 95, 5-(2,6-difluorophenyl)-N-(tetrahydro-2H-pyran-4-yl)-1,4-dihydrobenzo[d]pyrazolo[3,4-f][1,3]diazepine-8-carboxamide], the IC50 is below 10 nM in experiment [1] and 10 to 100 nM in experiment [2].
`CC(C)(O)c1ccc2c(c1)NC(c1c(F)cccc1F)=Nc1cn[nH]c1-2` [Compound 98, 2-(5-(2,6-difluorophenyl)-1,6-dihydrobenzo[d]pyrazolo[3,4-f][1,3]diazepin-8-yl)propan-2-ol]: the IC50 in experiment [1] and in experiment [2] was 10 to 100 nM in each case.
For the molecule `Fc1cccc(F)c1C1=Nc2cc(OC3CCOCC3)ccc2-c2[nH]ncc2N1` [Compound 99, 5-(2,6-difluorophenyl)-8-((tetrahydro-2H-pyran-4-yl)oxy)-1,4-dihydrobenzo[d]pyrazolo[3,4-f][1,3]diazepine], the 50% inhibitory concentration (IC50) in experiment [1] and in experiment [2] was 10 to 100 nM throughout.

Values taken from US20220380374A1, “1,4-DIHYDROBENZO[D]PYRAZOLO[3,4-F][1,3]DIAZEPINE DERIVATIVES AND RELATED COMPOUNDS AS LRRK2, NUAK1 AND/OR TYK2 KINASE MODULATORS FOR THE TREATMENT OF E.G. AUTOIMMUNE DISEASE” (Origenis GMBH, priority 2019, published 2022).
